Literature values as cited in US20110009340A1, “COMBINATION OF AN IRON CHELATOR AND AN IMMUNOSUPPRESSANT AND USE THEREOF” (NOVARTIS AG, priority 2008, published 2011).

- solubility in methanol (methanol): slightly soluble
- solubility in water (water): freely soluble
SMILES: CC(=O)N(O)CCCCCNC(=O)CCC(=O)N(O)CCCCCNC(=O)CCC(=O)N(O)CCCCCN.CS(=O)(=O)O [Deferoxamine mesylate USP, N-[5-[3-[(5-aminopentyl)hydroxycarbamoyl]propionamido]pentyl]-3-[[5-(N-hydroxyacetamido)pentyl]carbamoyl]propionohydroxamic acid monomethanesulfonate (salt)]
